# According to paper PMC5053593, “Tetrahydrobiopterin Supplementation: Elevation of Tissue Biopterin Levels Accompanied by a Relative Increase in Dihydrobiopterin in the Blood and the Role of Probenecid-Sensitive Uptake in Scavenging Dihydrobiopterin in the Liver and Kidney of Rats” (PLoS ONE, 2016):
# Structures can show the parent of a compound that is named as a salt. Where two headings read alike, the source gives them in different places.
# Columns and labels:
# [1] = both, Sprague-Dawley, rat, in vivo
# Procedure: Each blood sample was divided into three portions; one served as a “whole blood” specimen, the second was for the hematocrit determination, and the third was centrifuged (10,000 rpm, 4°C, 5 min) to separate red blood cells (RBCs) from the plasma. The whole blood, plasma, and RBCs were separately subjected to differential iodine oxidation for the BP determination described below. The results were expressed as the amount of BP per unit volume of the original blood sample (plasma + RBC, mL) based on the hematocrit value. The kidneys, liver, and whole brain were removed without prior perfusion, rinsed with saline, blotted, weighed, frozen in liquid nitrogen, and then stored at -80°C until BP determination. BP carryover with the blood was ignored in the liver and kidney. However, for the brain, the BP carryover was estimated using an average blood inclusion of 1.2% (v/w), which was determined by a comparison of the heme content of the blood and brain homogenates based on light absorbance at 415 nm.
# (§1) Biopterin was determined essentially according to Fukushima and Nixon and modified as described previously. Animal tissues contain at least 4 chemical species of the reduced biopterin family; BH4-4a-carbinolamine (or 4a-hydroxy-tetrahydrobiopterin), quinonoid dihydrobiopterin and 7,8-dihydrobiopterin as well as BH4. The Fukushima and Nixon method includes tissue homogenization and extraction of pterin compounds followed by measurement of amount of fully oxidized biopterin after differential iodine oxidation under acid and alkaline conditions. With their method, the biopterin quantity remaining after the acid-oxidation was taken as the total biopterin (BP = “BH4” + “BH2” + “oxidized biopterin”) and that which remained after the alkaline-oxidation, as 7,8-dihydrobiopterin (BH2) plus oxidized biopterin. […] Accordingly, in this study, the biopterin amount measured after the acid iodine oxidation was taken as the sum of “BH4” and “BH2” (“BP” = “BH2” + “BH4”), and that after the alkaline oxidation, as the amount of “BH2”. The difference was therefore taken as the “BH4” amount. The BH4 fraction (BH4%; the percentage of BH4 in BP) was calculated for each individual sample. The amounts of BH4 and BH2 were calculated based on molecular weights of 241 g/mol and 239 g/mol, respectively.
# [2] = both, Sprague-Dawley, rat, in vivo; remark: listed apart in the source
# Excerpt: (§2) In the following sample acquisition, special care to ensure minimal oxidation of BH4 was taken throughout the following procedure. In brief, the abdomen was opened and cannulae were set in place for collecting bile and urine. The blood samples were drawn from the tail vein into a heparin-coated capillary containing a solution of 0.1 M ascorbic acid (less than 5% by volume), and they were then subjected to differential iodine oxidation for BP determination. The urine was collected at intervals from the bladder through an indwelling needle connected to an airtight syringe in which the dead space had been filled with saline containing 50 mM each of ascorbic acid and EDTA (pH 6.8). The urine was immediately mixed with 9 volumes of 10 mM HCl containing 5 mM antioxidant. The aliquots were then subjected to quantitation of BP and creatinine. BP excretion was expressed as BP/creatinine (μmol/mg creatinine) based on the BP concentration (nmol/mL) divided by the time-matched creatinine level (μg/mL). In calculating the cumulative total, the amounts of BP in each fraction were added. Calculations were based on the BP concentration (nmol/mL) multiplied by the respective urine volume (mL) produced between each sampling time point regardless of the creatinine concentration. The bile was also collected from individual rats through a cannula in the bile duct and was immediately subjected to BP determination. The cumulative BP amount was calculated by adding up all samples measured.
# Biopterin was determined essentially according to Fukushima and Nixon and modified as described previously. […] With their method, the biopterin quantity remaining after the acid-oxidation was taken as the total biopterin (BP = “BH4” + “BH2” + “oxidized biopterin”) and that which remained after the alkaline-oxidation, as 7,8-dihydrobiopterin (BH2) plus oxidized biopterin. […] Accordingly, in this study, the biopterin amount measured after the acid iodine oxidation was taken as the sum of “BH4” and “BH2” (“BP” = “BH2” + “BH4”), and that after the alkaline oxidation, as the amount of “BH2”. […] The BH4 fraction (BH4%; the percentage of BH4 in BP) was calculated for each individual sample. The amounts of BH4 and BH2 were calculated based on molecular weights of 241 g/mol and 239 g/mol, respectively.
# Data were expressed as means ±S.E. The statistical significance of two groups with non-repeated determination was analyzed by Student’s t-test. The significance of difference between determinations at different times with individual animal groups was analyzed by the Paired t-test. Significance of difference between three groups was analyzed by Tukey’s test. […]
# [3] = set-up: method as in PMID 22318121, PMID 22318121; details: cited from earlier work
# [4] = rat, in vivo
# Excerpt: as §2, §1
# The urinary creatinine concentration was measured using a creatininase-HMMPS method according to the manufacturer’s instructions (L-type Creatinine M; Wako Pure Chemical Industries, Osaka, Japan).
# Data were expressed as means ±S.E. The statistical significance of two groups with non-repeated determination was analyzed by Student’s t-test. The significance of difference between determinations at different times with individual animal groups was analyzed by the Paired t-test. Significance of difference between three groups was analyzed by Tukey’s test. All the statistical analyses were performed with Pharmaco Basic Ver.15.0.1 (Scientist Co. Ltd., Tokyo). Using results of pterin kinetics, exponential least square approximation was performed with Excel software using Microsoft Office for Mac.
smiles,measurement,setting,value
"C[C@H](O)[C@H](O)[C@H]1CNc2nc(N)[nH]c(=O)c2N1 [6RBH4, (6R)-L-erythro-5,6,7,8-tetrahydrobiopterin dihydrochloride]",BH4% in blood,[1]; 30 min,93.9 ±0.6%
same,BH4% in kidney,[1]; 30 min,98.0 ±0.2%
same,BP (nmol) per organ,[1]; 30 min,76.8 nmol
same,"BP (nmol), sub-total of liver, blood, kidneys, brain",[1]; 30 min,515 nmol
same,Brain BP increase over untreated rats,[1]; 30 min,about 43%
same,Kidney BP over the initial value,[1]; 30 min,58 fold
same,Liver BP content,[1]; 30 min,53.3 nmol/g
same,Liver BP over the initial value,[1]; 30 min,9.1 fold
same,BH4% in blood,[1]; 120 min,96.2 ±0.1%
same,BH4% in liver,[1]; 120 min,98.8 ±0.1%
same,BP (nmol) per organ,[1]; 120 min,39.5 nmol
same,"BP (nmol), sub-total of liver, blood, kidneys, brain",[1]; 120 min,325 nmol
same,Biliary BH4%,[2],~95%
same,"Biliary BP outflow fit, rate constant k",[2],0.007 min⁻¹
same,C0,[2],47.2 µM
same,Cumulative excretion of BP in the bile as % of that in the urine,[2],about 3%
same,"Urinary BP flow, glomerular filtration rate constant k",[3],0.013 min⁻¹
same,"Urinary BP flow, observed gross rate constant k",[3],0.043 min⁻¹
same,"Urinary BP flow, tubular secretion rate constant k",[3]; gross minus glomerular rate constant,0.030 min⁻¹
same,Urinary BP outflow,"[4]; both, Sprague-Dawley",1840 ± 250 nmol
same,Urinary BP outflow as % of gross outflow obtained by 270 min,"[4]; both, Sprague-Dawley",about 58%
same,Urinary BH4%,"[4]; both, Sprague-Dawley, 30 min",95 ± 1%
same,Urinary BH4%,"[4]; both, Sprague-Dawley, 90 min",87 ± 2%
same,Urinary BH4%,"[4]; both, Sprague-Dawley, 240 min",ca. 94%
same,Creatinine-based urinary BP AUC0–270,"[4]; iv, 5 mg/kg",731 (μmol/mg Cr)•min
